Measured values as given in ChEMBL document CHEMBL1201862, “PubChem BioAssay data set” (2004).
The source made the active and inactive calls.

Experiments:
[1] = molecular target: Intestinal-type alkaline phosphatase (Homo sapiens, UniProt P09923); experiment: activation of human intestinal alkaline phosphatase – biochemical, dose response (AID 488873); format: functional
[2] = molecular target: T1, Intestinal-type alkaline phosphatase (Mus musculus, UniProt P24822); experiment: PubChem AID 488785; format: functional
T1 sequence (P24822 whole entry): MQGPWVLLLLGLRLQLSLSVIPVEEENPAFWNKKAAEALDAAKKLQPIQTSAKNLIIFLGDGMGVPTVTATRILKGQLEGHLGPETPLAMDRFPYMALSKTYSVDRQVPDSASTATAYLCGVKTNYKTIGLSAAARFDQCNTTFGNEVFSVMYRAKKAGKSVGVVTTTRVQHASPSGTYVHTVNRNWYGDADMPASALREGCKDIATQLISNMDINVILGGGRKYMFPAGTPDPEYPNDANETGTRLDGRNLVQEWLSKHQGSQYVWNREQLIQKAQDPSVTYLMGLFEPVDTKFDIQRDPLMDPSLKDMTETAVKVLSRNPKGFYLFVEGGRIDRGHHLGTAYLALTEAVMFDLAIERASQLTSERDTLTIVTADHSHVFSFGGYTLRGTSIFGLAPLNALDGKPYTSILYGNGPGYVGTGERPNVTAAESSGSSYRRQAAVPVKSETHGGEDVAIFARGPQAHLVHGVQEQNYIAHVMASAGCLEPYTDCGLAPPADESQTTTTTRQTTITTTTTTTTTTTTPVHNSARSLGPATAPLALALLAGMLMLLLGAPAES

[3] = molecular target: T2, Alkaline phosphatase, tissue-nonspecific isozyme (Homo sapiens, UniProt P05186); experiment: TNAP enzyme inhibition by screening hits, dose response, selectivity assay for mouse IAP inhibitor project, biochemical, human TNAP, uHTS hits (AID 488906); format: functional
T2 sequence (P05186 whole entry): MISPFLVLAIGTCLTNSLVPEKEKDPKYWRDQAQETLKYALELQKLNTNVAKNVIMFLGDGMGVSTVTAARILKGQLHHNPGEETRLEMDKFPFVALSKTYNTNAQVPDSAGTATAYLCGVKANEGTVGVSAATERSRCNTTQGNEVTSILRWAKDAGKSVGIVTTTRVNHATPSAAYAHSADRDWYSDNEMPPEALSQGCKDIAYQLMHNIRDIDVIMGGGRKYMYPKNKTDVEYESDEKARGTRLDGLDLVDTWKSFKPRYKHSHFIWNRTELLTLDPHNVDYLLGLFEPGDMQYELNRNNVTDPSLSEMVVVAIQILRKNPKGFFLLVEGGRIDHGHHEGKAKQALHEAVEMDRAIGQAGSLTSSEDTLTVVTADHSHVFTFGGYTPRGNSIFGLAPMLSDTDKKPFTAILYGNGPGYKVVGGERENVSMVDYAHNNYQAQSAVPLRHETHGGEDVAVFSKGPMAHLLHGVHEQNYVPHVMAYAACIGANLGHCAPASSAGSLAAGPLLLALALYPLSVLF

[4] = molecular target: Large T antigen (Simian virus 40, UniProt P03070); format: functional, Betapolyomavirus macacae;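 also: Confirmatory-stage PubChem screen for compounds that inhibit SV40 T antigen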
Sequence of Large T antigen (P03070 whole entry): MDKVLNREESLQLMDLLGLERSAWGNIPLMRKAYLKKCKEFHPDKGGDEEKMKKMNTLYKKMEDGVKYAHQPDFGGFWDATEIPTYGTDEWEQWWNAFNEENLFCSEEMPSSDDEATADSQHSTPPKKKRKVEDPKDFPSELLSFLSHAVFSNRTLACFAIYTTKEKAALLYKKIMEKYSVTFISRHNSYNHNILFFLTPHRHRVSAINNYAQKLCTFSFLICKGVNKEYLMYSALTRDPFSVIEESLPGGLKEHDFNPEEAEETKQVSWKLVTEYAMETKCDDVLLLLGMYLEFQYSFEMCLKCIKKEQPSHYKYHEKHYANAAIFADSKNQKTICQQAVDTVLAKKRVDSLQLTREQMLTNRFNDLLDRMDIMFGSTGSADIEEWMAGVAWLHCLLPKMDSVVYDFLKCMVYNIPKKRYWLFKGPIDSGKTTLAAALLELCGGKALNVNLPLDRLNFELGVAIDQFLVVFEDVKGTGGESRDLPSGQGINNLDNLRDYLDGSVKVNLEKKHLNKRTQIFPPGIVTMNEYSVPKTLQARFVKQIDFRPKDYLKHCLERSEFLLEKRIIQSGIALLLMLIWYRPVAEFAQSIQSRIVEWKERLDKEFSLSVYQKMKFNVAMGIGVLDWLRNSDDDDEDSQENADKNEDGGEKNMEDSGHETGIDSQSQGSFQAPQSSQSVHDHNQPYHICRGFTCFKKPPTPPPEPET

[5] = molecular target: T1, Intestinal-type alkaline phosphatase; experiment: mouse intestinal alkaline phosphatase activators, dose response, biochemical, luminescence, uHTS hits (AID 488783); format: functional
[6] = molecular target: T2, Alkaline phosphatase, tissue-nonspecific isozyme; experiment: TNAP enzyme activators, dose response, selectivity assay for mouse IAP activator project, biochemical, TNAP isozyme, mouse IAP uHTS hits (AID 488880); format: functional
[7] = molecular target: T3, Histone-lysine N-methyltransferase NSD2 (Homo sapiens, UniProt O96028); format: biochemical
T3 sequence (O96028 whole entry): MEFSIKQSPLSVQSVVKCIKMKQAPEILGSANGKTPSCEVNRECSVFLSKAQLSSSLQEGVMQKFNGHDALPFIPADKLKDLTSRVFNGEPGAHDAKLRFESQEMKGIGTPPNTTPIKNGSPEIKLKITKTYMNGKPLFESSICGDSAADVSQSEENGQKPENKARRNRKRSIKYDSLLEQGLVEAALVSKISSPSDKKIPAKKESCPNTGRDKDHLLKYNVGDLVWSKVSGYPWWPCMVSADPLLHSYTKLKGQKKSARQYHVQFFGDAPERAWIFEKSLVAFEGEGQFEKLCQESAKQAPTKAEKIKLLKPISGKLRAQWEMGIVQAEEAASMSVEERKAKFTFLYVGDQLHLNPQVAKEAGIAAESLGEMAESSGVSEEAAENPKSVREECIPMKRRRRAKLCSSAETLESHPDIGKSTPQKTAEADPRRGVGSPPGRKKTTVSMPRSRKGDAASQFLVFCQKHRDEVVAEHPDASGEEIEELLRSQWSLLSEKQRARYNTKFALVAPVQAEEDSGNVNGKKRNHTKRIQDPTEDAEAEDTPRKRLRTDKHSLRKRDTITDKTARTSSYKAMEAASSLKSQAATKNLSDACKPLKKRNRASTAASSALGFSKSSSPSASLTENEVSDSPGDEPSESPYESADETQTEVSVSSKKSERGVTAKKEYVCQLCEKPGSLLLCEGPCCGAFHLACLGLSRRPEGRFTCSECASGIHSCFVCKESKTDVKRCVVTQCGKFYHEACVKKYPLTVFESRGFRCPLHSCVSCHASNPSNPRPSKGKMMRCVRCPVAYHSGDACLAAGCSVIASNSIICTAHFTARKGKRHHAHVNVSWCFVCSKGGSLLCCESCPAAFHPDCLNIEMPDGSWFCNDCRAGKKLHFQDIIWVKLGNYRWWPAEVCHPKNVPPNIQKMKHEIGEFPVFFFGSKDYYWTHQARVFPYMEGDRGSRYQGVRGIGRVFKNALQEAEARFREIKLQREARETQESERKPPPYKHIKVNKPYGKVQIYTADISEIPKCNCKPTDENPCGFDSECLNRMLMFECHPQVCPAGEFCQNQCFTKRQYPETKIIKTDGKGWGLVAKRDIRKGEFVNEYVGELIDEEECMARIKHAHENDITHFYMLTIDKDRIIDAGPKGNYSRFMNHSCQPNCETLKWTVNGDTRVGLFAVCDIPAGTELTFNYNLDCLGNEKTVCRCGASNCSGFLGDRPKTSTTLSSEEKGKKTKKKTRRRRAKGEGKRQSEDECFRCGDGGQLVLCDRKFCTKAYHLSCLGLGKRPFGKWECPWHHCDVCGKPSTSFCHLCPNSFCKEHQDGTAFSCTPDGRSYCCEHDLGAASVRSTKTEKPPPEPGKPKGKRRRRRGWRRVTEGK

[8] = cells; format: functional, cell-based
[9] = molecular target: Ion channel NompC (Danio rerio, UniProt Q7T1G6); experiment: Dose response cell-based high-throughput screening assay for agonists of the transient receptor potential channel N1 (TRPN1). [Related pubchem assays (depositor defined):AID1424, AID1448]; format: functional
Sequence of Ion channel NompC (Q7T1G6 whole entry): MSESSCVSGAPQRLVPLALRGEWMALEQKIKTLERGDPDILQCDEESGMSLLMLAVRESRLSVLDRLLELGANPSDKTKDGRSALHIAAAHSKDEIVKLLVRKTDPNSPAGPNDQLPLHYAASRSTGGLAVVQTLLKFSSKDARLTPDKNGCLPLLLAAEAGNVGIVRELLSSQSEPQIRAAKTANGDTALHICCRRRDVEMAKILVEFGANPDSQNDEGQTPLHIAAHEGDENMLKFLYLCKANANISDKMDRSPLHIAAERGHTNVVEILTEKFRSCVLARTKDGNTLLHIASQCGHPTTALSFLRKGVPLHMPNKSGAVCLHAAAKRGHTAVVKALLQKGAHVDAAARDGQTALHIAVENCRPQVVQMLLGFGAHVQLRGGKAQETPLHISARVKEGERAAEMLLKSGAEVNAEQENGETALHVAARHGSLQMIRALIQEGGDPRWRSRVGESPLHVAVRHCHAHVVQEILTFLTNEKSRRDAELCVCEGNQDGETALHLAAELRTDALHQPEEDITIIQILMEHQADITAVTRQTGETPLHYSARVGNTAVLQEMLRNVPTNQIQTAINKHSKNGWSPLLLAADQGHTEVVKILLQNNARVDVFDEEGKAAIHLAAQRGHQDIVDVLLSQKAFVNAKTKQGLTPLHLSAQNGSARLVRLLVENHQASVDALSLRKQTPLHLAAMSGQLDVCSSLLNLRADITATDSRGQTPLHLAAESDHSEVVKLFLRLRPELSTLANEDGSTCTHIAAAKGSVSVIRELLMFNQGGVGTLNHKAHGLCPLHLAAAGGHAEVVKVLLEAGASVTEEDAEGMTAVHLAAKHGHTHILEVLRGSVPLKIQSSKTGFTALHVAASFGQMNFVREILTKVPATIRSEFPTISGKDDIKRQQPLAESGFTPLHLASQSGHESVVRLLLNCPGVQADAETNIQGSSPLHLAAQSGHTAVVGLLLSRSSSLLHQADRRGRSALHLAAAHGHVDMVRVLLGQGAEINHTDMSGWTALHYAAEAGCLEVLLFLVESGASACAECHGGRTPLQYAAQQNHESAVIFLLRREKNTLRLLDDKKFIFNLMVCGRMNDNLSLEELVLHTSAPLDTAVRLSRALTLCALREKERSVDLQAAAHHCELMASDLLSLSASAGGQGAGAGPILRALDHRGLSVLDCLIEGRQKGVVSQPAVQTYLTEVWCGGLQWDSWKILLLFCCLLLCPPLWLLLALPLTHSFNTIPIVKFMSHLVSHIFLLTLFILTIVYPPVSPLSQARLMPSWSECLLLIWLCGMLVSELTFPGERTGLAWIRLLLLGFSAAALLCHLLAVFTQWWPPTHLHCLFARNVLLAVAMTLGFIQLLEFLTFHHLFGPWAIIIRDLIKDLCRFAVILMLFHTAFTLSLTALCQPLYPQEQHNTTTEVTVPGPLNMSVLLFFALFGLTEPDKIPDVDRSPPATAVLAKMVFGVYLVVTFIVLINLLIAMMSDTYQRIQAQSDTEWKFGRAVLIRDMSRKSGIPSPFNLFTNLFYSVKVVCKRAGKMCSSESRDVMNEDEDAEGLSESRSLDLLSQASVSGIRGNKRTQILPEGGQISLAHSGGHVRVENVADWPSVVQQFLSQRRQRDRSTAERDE

[10] = cells; format: functional, cell-based; remark: listed apart in the source
[11] = molecular target: T4, Mucolipin-3 (Homo sapiens, UniProt Q8TDD5); experiment: Fluorescence counterscreen assay for […] agonists: dose response cell-based high-throughput screening assay to identify agonists of the transient receptor potential channel ML3 (TRPML3). [Related pubchem assays: 1424, 1448 ]; format: functional
T4 sequence (Q8TDD5 whole entry): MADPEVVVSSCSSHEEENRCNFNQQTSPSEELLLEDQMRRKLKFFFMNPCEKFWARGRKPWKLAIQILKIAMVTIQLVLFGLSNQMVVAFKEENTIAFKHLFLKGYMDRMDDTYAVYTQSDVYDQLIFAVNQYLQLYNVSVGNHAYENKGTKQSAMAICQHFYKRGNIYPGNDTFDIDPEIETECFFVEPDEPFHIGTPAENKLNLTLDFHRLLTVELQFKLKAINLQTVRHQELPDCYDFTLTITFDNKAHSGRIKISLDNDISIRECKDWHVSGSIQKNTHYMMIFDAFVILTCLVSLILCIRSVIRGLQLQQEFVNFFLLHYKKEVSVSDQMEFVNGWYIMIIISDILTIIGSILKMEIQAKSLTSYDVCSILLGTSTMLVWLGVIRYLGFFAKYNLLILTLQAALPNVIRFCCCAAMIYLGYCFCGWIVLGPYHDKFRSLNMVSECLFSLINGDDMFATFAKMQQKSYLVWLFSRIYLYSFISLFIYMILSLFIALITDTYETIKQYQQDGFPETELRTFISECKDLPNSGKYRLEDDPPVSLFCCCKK

[12] = molecular target: Nonstructural protein 1 (Influenza A virus, UniProt Q194T2); format: functional, Influenza A virus (A/California/07/2009(H1N1))
Sequence of Nonstructural protein 1 (Q194T2 whole entry): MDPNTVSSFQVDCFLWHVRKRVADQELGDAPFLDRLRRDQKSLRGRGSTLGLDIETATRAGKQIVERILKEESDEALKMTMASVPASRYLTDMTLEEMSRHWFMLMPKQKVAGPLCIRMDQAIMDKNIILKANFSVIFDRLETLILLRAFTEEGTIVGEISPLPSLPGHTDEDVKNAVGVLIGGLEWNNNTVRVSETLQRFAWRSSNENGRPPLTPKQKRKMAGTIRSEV

[13] = molecular target: Alkaline phosphatase, placental type (Homo sapiens, UniProt P05187); experiment: PLAP enzyme inhibitors, confirmation, biochemical, luminescence (AID 1512); format: functional
Sequence of Alkaline phosphatase, placental type (P05187 whole entry): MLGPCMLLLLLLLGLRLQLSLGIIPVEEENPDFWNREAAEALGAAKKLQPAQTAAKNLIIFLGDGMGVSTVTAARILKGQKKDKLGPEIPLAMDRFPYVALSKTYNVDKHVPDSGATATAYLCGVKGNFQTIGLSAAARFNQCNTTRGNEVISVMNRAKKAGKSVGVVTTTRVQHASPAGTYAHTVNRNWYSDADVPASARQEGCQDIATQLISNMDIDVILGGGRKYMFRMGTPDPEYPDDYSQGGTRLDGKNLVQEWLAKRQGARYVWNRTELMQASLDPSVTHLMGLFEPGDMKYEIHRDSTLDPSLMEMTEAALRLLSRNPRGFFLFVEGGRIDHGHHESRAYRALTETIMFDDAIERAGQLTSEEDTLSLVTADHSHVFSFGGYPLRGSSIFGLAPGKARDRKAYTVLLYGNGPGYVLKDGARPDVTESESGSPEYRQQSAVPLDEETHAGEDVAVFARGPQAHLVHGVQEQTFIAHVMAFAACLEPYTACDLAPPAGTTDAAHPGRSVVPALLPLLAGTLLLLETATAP

[14] = molecular target: T2, Alkaline phosphatase, tissue-nonspecific isozyme; experiment: human TNAP enzyme inhibitors, SAR follow-up, biochemical, luminescent, dose response (AID 1056)

Sequence of Intestinal-type alkaline phosphatase (Homo sapiens, UniProt P09923) (P09923 whole entry): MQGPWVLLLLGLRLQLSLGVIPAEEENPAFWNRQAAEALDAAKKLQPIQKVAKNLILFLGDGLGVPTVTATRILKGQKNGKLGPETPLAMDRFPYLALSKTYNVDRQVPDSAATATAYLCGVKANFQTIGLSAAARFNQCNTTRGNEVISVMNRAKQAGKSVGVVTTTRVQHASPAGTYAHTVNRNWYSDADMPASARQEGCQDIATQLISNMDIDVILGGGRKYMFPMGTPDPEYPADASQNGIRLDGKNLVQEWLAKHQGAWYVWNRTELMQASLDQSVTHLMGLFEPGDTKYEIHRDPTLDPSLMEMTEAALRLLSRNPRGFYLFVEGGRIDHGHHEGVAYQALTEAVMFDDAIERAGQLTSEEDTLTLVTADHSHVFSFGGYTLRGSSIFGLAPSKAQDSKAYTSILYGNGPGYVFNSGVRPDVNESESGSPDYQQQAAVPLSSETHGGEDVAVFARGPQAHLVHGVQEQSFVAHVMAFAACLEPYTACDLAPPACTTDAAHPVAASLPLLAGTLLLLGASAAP

## COc1cccc(C(C)NC(=O)Nc2cccc(C(F)(F)F)c2)c1 (stereo not given)
[1]
  EC50: > 100 µM (inactive)
[2]
  IC50: 3.21 µM (active)
[3]
  IC50: > 100 µM (inactive)

## O=C(CSc1nc2ccccc2o1)N/N=C/c1ccc(O)c(O)c1
[4]
  IC50: 6.69 µM (active)
[1]
  EC50: 63 µM (active)
[5]
  EC50: 69.9 µM (active)
[6]
  EC50: 61.7 µM (active)
[7]
  AC50: 0.742 µM (active)

## O=C(N/N=C/c1cc(Cl)cc(Cl)c1O)c1ccncc1
[8]
  EC50: 259 µM (active)
[9]
  EC50: 6.49 µM (active)
[10]
  EC50: > 350 µM (not active)
[11]
  EC50: 14.2 µM (not active)
[12]
  IC50: 5.57 µM (active)

## Cc1cc(C)nc(SCC(=O)c2ccc(O)cc2)n1
[13]
  IC50: > 100 µM (inactive)
[14]
  IC50: > 100 µM (inactive)
